From patent publication US7138543B2, “Thiolalkyl benzoic acid derivatives” (Guilford Pharmaceuticals Inc., priority 2001, dated 2006) come the findings set out here.

One assay concerns BB/W diabetic rats. In words: Progression of neuropathic pain in BB/W model (withdrawal latency). The class given is in vivo. Particulars: 10 mg/kg i.p. daily; vs diabetic vehicle-treated rats, from 4 weeks through six months of treatment, FIG. 11. An excerpt: In vivo Assay of NAALADase Inhibitors on Progression of Neuropathic Pain in BB/W Models
Male BB/W rats (BRI, Mass) spontaneously develop a cell mediated autoimmune destruction of pancreatic B cells, resulting in onset of insulin-dependent (Type I) diabetes (Awata, Guberski, Endocrinology (1995) 136(12):5731–5). […] This renders them valuable for experimental trials of new compounds for future treatments of this major disorder. In the present study, Compound A and Compound D were examined for their ability to alter the progression of diabetic neuropathy. The rats received daily injection of Compound A or Compound D (10 mg/kg i.p.) or vehicle, starting at the onset of diabetes (hyperglycemia) and up to 6 months thereafter. Another group of non-diabetic rats also receiving vehicle were tested. All animals were continuously monitored for body weight, urine volume, blood sugar and glycated haemoglobin. In the first month of the study, all animals were tested for thermal nociception in a Hargreaves apparatus, weekly. After the first month this was done biweekly and then monthly. The testing consists of directing an infrared heat source onto the dorsal surface of the rat hindpaw and noting the time taken for the animal to remove its paw (see Hargreaves et al., J. Biol. Chem. (1988) 263(36):19392–7 for a description of the experimental method). […]

The test system of assay [1] is STZ-diabetic rats. In words: Neuropathic pain in STZ model (Hargreaves thermal nociception). The assay is classed as in vivo, Sprague-Dawley rats. Particulars: 10 mg/kg i.p. daily, started 45 days post-STZ. The procedure:
In vivo Assay of NAALADase Inhibitors on Neuropathic Pain in STZ Model
Male Sprague-Dawley rats (200–225 g) were rendered diabetic by intravenous administration of streptozotocin (“STZ”, 70 mg/kg in phosphate buffered saline). Diabetic animals were divided into five groups: one group receiving Compound A (10 mg/kg or 1 mg/kg), Compound D (10 mg/kg or 1 mg/kg) or vehicle. Another group of animals (non-STZ treated) served as non-diabetic controls. Drug/vehicle treatment was started in diabetic animals 45 days post-STZ administration. STZ-induced diabetic rats were tested for sensitivity to a heat source as soon as blood glucose levels rose to 320 mg/dl or above (30 days post STZ). The rats were then acclimated to a Hargreaves apparatus and thermal nociception was monitored using an infrared heat source directed into the dorsal surface of the hindpaw, and the time taken for the animal to remove its paw noted to the nearest 0.1 seconds (see Hargreaves et al., J. Biol. Chem. (1988) 263(36):19392–7 for a description of the experimental method). The intensity of the beam source was adjusted such that the mean latency for control animals (non-STZ treated) was approximately 10 seconds. Each animal was tested 8 times and the mean difference score (between mean non-diabetic control latency and mean diabetic latency) are graphically presented in FIGS. 7A and 7B.

Assay [2] concerns rats with unilaterally transected optic nerve. As to the kind of experiment: Optic nerve transection (optic nerve fiber counting). As to conditions: for FIBER NUMBER: 10 mg/kg daily intraperitoneal. The class given is in vivo, Rattus norvegicus. The procedure: All experiments complied with the Association for Research in Vision and Ophthalmology Statement for the Use of Animals in Ophthalmic and Vision Research. 82 male Brown Norway rats (Rattus norvegicus), each weighing approximately 250 gm, were treated using procedures approved by the Animal Care Committee of the Johns Hopkins University School of Medicine. The rats were housed with a 12 hour light/12 hour dark cycle and fed ad libitum.
OPTIC NERVE TRANSECTION: The optic nerve was transected unilaterally in 26 rats under intraperitoneal pentobarbital anesthesia. The conjunctiva was opened with scissors and the optic nerve exposed by traction on extraocular muscles. The transection was performed with microscissors 5 mm posterior to the globe, with specific attention to avoidance of injury to major ocular blood vessels. Immediately after transection, the retina was examined ophthalmoscopically to assure that the retinal arterial blood supply was not disrupted. The conjunctiva was closed with absorbable suture and the eye dressed with antibiotic ointment. Beginning on the day of transection, the rats were treated daily with intraperitoneal injections of either a vehicle (9 rats with 50 mM HEPES-buffered saline) or a NAALADase inhibitor (8 rats with 10 mg/kg of Compound A and 9 rats with 10 mg/kg of Compound B). 5 saline treated rats, 3 Compound A treated rats, and 4 Compound B treated rats were sacrificed at 2 weeks, and the remaining rats at 4 weeks, after transection.
OPTIC NERVE COUNTING: The rats were sacrificed by exsanguination under deep pentobarbital anesthesia. They were perfused through the heart with 2% paraformaldehyde/2% glutaraldehyde in 0.1 M phosphate buffer, pH 7.2, and the eyes with attached optic nerves were removed. A cross-section of the optic nerve from both experimental (glaucoma or transection) and control eyes was removed 1.5 mm posterior to the globe, 1 mm in thickness, and post-fixed in 2% osmium tetroxide in buffer. These were processed into epoxy resin, sectioned at 1 micron and stained with toluidine blue.
The area of the optic nerve cross-section was measured by outlining its outer border at 10× magnification on an image analysis system (Universal Imaging Corp., Westchester, Pa.) with Synsys digital camera and Metamorph software. Three area measurements were taken and the mean value was determined. To measure the density and fiber diameter distributions, images were captured with a 100× phase contrast objective from 10 different areas of each nerve. These were edited to eliminate non-neural objects and the size of each axon internal to the myelin sheath (its minimum diameter) and the density of axons/square mm were calculated for each image and nerve. The mean density was multiplied by total nerve area to yield fiber number for each nerve. The total fiber number in glaucoma or transection nerves was compared to the normal, fellow eye of each rat to yield a percent loss value. The number of axons counted among the 10 images was an approximately 20% sample of the 80–90,000 axons in normal rat nerves. The person measuring axon number was masked to the protocol conducted on the nerves.

The subject of assay [3] is STZ-diabetic rats. In words: Diabetic neuropathy in STZ model (motor and sensory nerve conduction velocity). The class given is in vivo. The procedure: In vivo Assay of NAALADase Inhibitors on Diabetic Neuropathy in STZ Model
Motor and sensory nerve conduction velocity was also measured in STZ-diabetic animals after 4, 8 and 12 weeks of treatment (see De Koning et al., supra, for a description of the experimental method). Briefly, stimulating needle electrodes were inserted close to the sciatic and tibial nerves with recording electrodes being placed subcutaneously over the distal foot muscles, in anesthetized rats.

Where [4] appears, read: 2 weeks survival after transection.
[5] abbreviates: 4 weeks survival after transection.

The structures appear in SMILES notation.

As for `O=C(O)CCC(CP(=O)(O)Cc1c(F)c(F)c(F)c(F)c1F)C(=O)O` (stereo not shown) [Compound A], in the assay on BB/W diabetic rats, the withdrawal latency entry is reported as “longer withdrawal latencies”. In addition, the “hyperalgesic response (withdrawal latency difference score)” value in the assay with STZ-diabetic rats [1] is “completely reversed”. The “remaining axons relative to the saline-treated rats” value in assay [2] (2 weeks after transection) was found to be 3 times. In addition, the “PERCENT DIFFERENCE in fiber number” value is given as 65.3 ± 30.9% in assay [2] (setting [4]) and 82.4 ± 8.9% in assay [2] (setting [5]). The figures for the “FIBER NUMBER” value in assay [2] (setting [4]) and in assay [2] (setting [5]) were 26,426 ± 23,025 and 13,599 ± 7,868, respectively. For the same compound, in the assay with STZ-diabetic rats [3] (10 mg/kg daily for 4, 8 and 12 weeks, FIGS. 9A and 9B), the “motor and sensory nerve conduction velocities” value is “tended to improve (increase) both motor and sensory nerve conduction velocities”. Further, the “treatment time at which significant improvement of motor nerve conduction velocity was observed” value in the assay with STZ-diabetic rats [3] (10 mg/kg daily, FIG. 9A) amounted to 12 weeks. Moreover, the “treatment time at which significant improvement of sensory nerve conduction velocity was observed” value with STZ-diabetic rats [3] (10 mg/kg daily, FIG. 9B) is on record as 8 weeks.
